Source: US20250059205A1, “Heterocyclic Compounds and Methods of Use” (AMGEN INC., priority 2021, published 2025)

What was measured:
[1] = molecular target: His-tagged KRAS G12D protein (Homo sapiens, UniProt P01116, G12D); experiment: KRAS G12D TR-FRET Assay; assay type: binding
[2] = molecular target: GDP-bound KRAS protein (aa 1-169), containing both G12D and C118A amino acid substitutions (Homo sapiens, UniProt P01116, C118A/G12D); experiment: KRAS G12D Coupled Nucleotide Exchange Assay; assay type: biochemical; details: 2 h compound pre-incubation
Chain of GDP-bound KRAS protein (aa 1-169), containing both G12D and C118A amino acid substitutions (P01116 1-169 isoform P01116-2 G12D/C118A): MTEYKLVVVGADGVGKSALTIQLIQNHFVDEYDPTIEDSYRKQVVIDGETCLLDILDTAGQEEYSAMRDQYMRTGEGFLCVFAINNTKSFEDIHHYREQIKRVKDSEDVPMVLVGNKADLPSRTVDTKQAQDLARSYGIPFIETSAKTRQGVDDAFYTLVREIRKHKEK
Procedure: Following compound pre-incubation, purified SOS protein (aa 564-1049) and GTP (Roche 10106399001) were added to the assay wells and incubated for an additional 30 min. […] The assay plates were then read on a PerkinElmer EnVision Multilabel Reader, using AlphaScreen® technology, and data were analyzed using a 4-parameter logistic model to calculate IC50 values.

[3] = system: Phosphorylation of ERK1/2 in A-427 cells; experiment: Phospho-ERK1/2 MSD Assay (A-427 cells); assay type: cell-based; details: Homo sapiens, A-427, 2 h, 2 h treatment, read-out: p-ERK (A427 cells) IC50
Method in brief: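 ERK1/2 phosphorylation measured by Meso Scale whole-cell lysate assay after A-427 cells were exposed to a titration of compound for 2 h at 37 °C.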

[4] = system: Phosphorylation of ERK1/2 in AsPC-1 cells; experiment: Phospho-ERK1/2 MSD Assay (AsPC-1 cells); assay type: cell-based; details: Homo sapiens, ASPC1, 2 h, 2 hours treatment, read-out: p-ERK (AsPC-1 cells) IC50
Method in brief: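 Read-out: MSD electrochemiluminescent detection of phosphorylated ERK1/2 in whole-cell lysates, fitted to a 4-parameter logistic curve for IC50. Prior to lysis, AsPC-1 cells (25,000 per well) received a 2 h compound dose-response at 37 °C.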

Chain of His-tagged KRAS G12D protein (P01116 1-188 isoform P01116-2 G12D): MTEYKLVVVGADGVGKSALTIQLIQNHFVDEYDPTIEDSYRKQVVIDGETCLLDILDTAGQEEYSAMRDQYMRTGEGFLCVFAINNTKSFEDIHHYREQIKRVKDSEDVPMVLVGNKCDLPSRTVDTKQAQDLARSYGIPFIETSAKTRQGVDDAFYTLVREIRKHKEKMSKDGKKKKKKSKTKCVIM

| Compound | IC50 [1] [µM] | Avg 2 h Coupled Exchange IC50 [2] [µM] | IC50 [3] [µM] | IC50 [4] [µM] |
| --- | --- | --- | --- | --- |
| CCc1c(F)ccc2cc(O)cc(-c3c(F)cc4c(N5C[C@H]6CC[C@@H](C5)N6)nc(OCC(O)(CC)CC)nc4c3F)c12 [Example 123, 4-(4-((1R,5S)-3,8-diazabicyclo[3.2.1]octan-3-yl)-2-(2-ethyl-2-hydroxybutoxy)-6,8-difluoroquinazolin-7-yl)-5-ethyl-6-fluoronaphthalen-2-ol] | 0.012 | 0.012 | 1.99 | 2.24 |
| CCC(O)(CC)COc1nc(N2C[C@H]3CC[C@@H](C2)N3)c2cc(F)c(-c3cc(O)cc4ccc(F)c(F)c34)c(F)c2n1 [Example 124, 4-(4-((1R,5S)-3,8-diazabicyclo[3.2.1]octan-3-yl)-2-(2-ethyl-2-hydroxybutoxy)-6,8-difluoroquinazolin-7-yl)-5,6-difluoronaphthalen-2-ol] | 0.034 | 0.019 | 4.32 | 2.41 |
| CC(O)COc1nc(N2C[C@H]3CC[C@@H](C2)N3)c2cc(F)c(-c3cc(O)cc4ccccc34)c(F)c2n1 (stereo partly drawn) [Example 125, 4-(4-((1R,5S)-3,8-diazabicyclo[3.2.1]octan-3-yl)-6,8-difluoro-2-(2-hydroxypropoxy)quinazolin-7-yl)naphthalen-2-ol] | 0.114 | 0.039 | > 10 | > 10 |
| CCc1c(F)ccc2cc(O)cc(-c3c(F)cc4c(N5C[C@H]6CC[C@@H](C5)N6)nc(OC[C@@H]5CCC(=O)N5)nc4c3F)c12 [Example 126, (5S)-5-(((4-((1R,5S)-3,8-diazabicyclo[3.2.1]octan-3-yl)-7-(8-ethyl-7-fluoro-3-hydroxynaphthalen-1-yl)-6,8-difluoroquinazolin-2-yl)oxy)methyl) pyrrolidin-2-one] | 0.006 | 0.002 | 0.388 | 1.22 |
| CCc1c(F)ccc2cc(O)cc(-c3c(F)cc4c(N5C[C@H]6CC[C@@H](C5)N6)nc(OC[C@H]5CCC(=O)N5)nc4c3F)c12 [Example 127, (5R)-5-(((4-((1R,5S)-3,8-diazabicyclo[3.2.1]octan-3-yl)-7-(8-ethyl-7-fluoro-3-hydroxynaphthalen-1-yl)-6,8-difluoroquinazolin-2-yl)oxy)methyl) pyrrolidin-2-one] | 0.012 | 0.003 | 3.3 | 7.5 |
| CCc1c(F)ccc2cc(O)cc(-c3c(F)cc4c(N5C[C@H]6CC[C@@H](C5)N6)nc(OCC56CCCN5CC(F)(F)C6)nc4c3F)c12 (stereo partly drawn) [Example 128, 4-(4-((1R,5S)-3,8-diazabicyclo[3.2.1]octan-3-yl)-2-((2,2-difluorotetrahydro-1H-pyrrolizin-7a(5H)-yl)methoxy)-6,8-difluoroquinazolin-7-yl)-5-ethyl-6-fluoronaphthalen-2-ol] | 0.003 | 0.004 | 0.308 | 0.243 |
| CCc1c(F)ccc2cc(O)cc(-c3c(Cl)cc4c(N5C[C@@H]6CC[C@H]5CN6)nc(OC[C@@]56CCCN5C[C@H](F)C6)nc4c3F)c12 [Example 129, 4-(4-((1S,4S)-2,5-diazabicyclo[2.2.2]octan-2-yl)-6-chloro-8-fluoro-2-(((2R,7aS)-2-fluorotetrahydro-1H-pyrrolizin-7a(5H)-yl)methoxy)quinazolin-7-yl)-5-ethyl-6-fluoronaphthalen-2-ol] | 0.004 | 0.005 | 0.029 | 0.083 |
| CCc1cccc2cc(O)cc(-c3c(Cl)cc4c(N5C[C@@H]6CC[C@H]5CN6)nc(OC[C@@]56CCCN5C[C@H](F)C6)nc4c3F)c12 [Example 130, 4-(4-((1S,4S)-2,5-diazabicyclo[2.2.2]octan-2-yl)-6-chloro-8-fluoro-2-(((2R,7aS)-2-fluorotetrahydro-1H-pyrrolizin-7a(5H)-yl)methoxy)quinazolin-7-yl)-5-ethylnaphthalen-2-ol] | 0.003 | 0.005 | 0.052 | 0.102 |
| CCc1c(F)ccc2cc(O)cc(-c3ccc4c(N5C[C@H]6CC[C@@H](C5)N6)nc(OCC(C)(C)O)nc4c3F)c12 [Example 131, 4-(4-((1R,5S)-3,8-diazabicyclo[3.2.1]octan-3-yl)-8-fluoro-2-(2-hydroxy-2-methylpropoxy)quinazolin-7-yl)-5-ethyl-6-fluoronaphthalen-2-ol] | 0.009 | 0.005 | 0.682 | 0.926 |
| CCc1c(F)ccc2cc(O)cc(-c3ccc4c(N5C[C@H]6CC[C@@H](C5)N6)nc(OCCC(C)(C)O)nc4c3F)c12 [Example 132, 4-(4-((1R,5S)-3,8-diazabicyclo[3.2.1]octan-3-yl)-8-fluoro-2-(3-hydroxy-3-methylbutoxy)quinazolin-7-yl)-5-ethyl-6-fluoronaphthalen-2-ol] | 0.016 | 0.006 | 1.69 | 1.2 |
| CCc1c(F)ccc2cc(O)cc(-c3ccc4c(N5C[C@H]6CC[C@@H](C5)N6)nc(OCC5(O)CCCC5)nc4c3F)c12 [Example 133, 4-(4-((1R,5S)-3,8-diazabicyclo[3.2.1]octan-3-yl)-8-fluoro-2-((1-hydroxycyclopentyl)methoxy)quinazolin-7-yl)-5-ethyl-6-fluoronaphthalen-2-ol] | 0.007 | 0.006 | 2.43 | 2.04 |
| CCc1c(F)ccc2cc(O)cc(-c3c(Cl)cc4c(N5C[C@H]6CC[C@@H](C5)N6)nc(OC[C@@]56CCCN5C[C@H](F)C6)nc4c3F)c12 [Example 134, 4-(4-((1R,5S)-3,8-diazabicyclo[3.2.1]octan-3-yl)-6-chloro-8-fluoro-2-(((2R,7aS)-2-fluorotetrahydro-1H-pyrrolizin-7a(5H)-yl)methoxy)quinazolin-7-yl)-5-ethyl-6-fluoronaphthalen-2-ol] | 0.004 | 0.007 | 0.057 | 0.074 |
| CCc1c(F)ccc2cc(O)cc(-c3ccc4c(N5C[C@H]6CC[C@@H](C5)N6)nc(OCC5(O)CCC5)nc4c3F)c12 [Example 135, 4-(4-((1R,5S)-3,8-diazabicyclo[3.2.1]octan-3-yl)-8-fluoro-2-((1-hydroxycyclobutyl)methoxy)quinazolin-7-yl)-5-ethyl-6-fluoronaphthalen-2-ol] | 0.01 | 0.009 | 2.12 | 2.27 |
| CCc1c(F)ccc2cc(O)cc(-c3ccc4c(N5C[C@H]6CC[C@@H](C5)N6)nc(O[C@@H](C)C(C)(C)O)nc4c3F)c12 [Example 136, 4-(4-((1R,5S)-3,8-diazabicyclo[3.2.1]octan-3-yl)-8-fluoro-2-(((S)-3-hydroxy-3-methylbutan-2-yl)oxy)quinazolin-7-yl)-5-ethyl-6-fluoronaphthalen-2-ol] | 0.056 | 0.021 | 5.35 | 4.16 |
| Oc1cc(-c2c(Cl)cc3c(N4C[C@H]5CC[C@@H](C4)N5)nc(OC[C@@]45CCCN4C[C@H](F)C5)nc3c2F)c2c(F)cccc2c1 [Example 137, 4-(4-((1R,5S)-3,8-diazabicyclo[3.2.1]octan-3-yl)-6-chloro-8-fluoro-2-(((2R,7aS)-2-fluorotetrahydro-1H-pyrrolizin-7a(5H)-yl)methoxy)quinazolin-7-yl)-5-fluoronaphthalen-2-ol] | 0.037 | 0.034 | 0.411 | 1.71 |
| CCc1c(F)ccc2cc(O)cc(-c3ccc4c(N5C[C@H]6COC[C@@H](C5)N6)nc(OC[C@@]56CCCN5C[C@H](F)C6)nc4c3F)c12 [Example 138, 4-(4-((1R,5S)-3-oxa-7,9-diazabicyclo[3.3.1]nonan-7-yl)-8-fluoro-2-(((2R,7aS)-2-fluorotetrahydro-1H-pyrrolizin-7a(5H)-yl)methoxy)quinazolin-7-yl)-5-ethyl-6-fluoronaphthalen-2-ol] | 0.003 | 0.004 | 0.072 | 0.216 |
| CCc1c(F)ccc2cc(O)cc(-c3ccc4c(N5C[C@@H]6CC[C@H]5CN6)nc(OC[C@@]56CCCN5C[C@H](F)C6)nc4c3F)c12 [Example 139, 4-(4-((1S,4S)-2,5-diazabicyclo[2.2.2]octan-2-yl)-8-fluoro-2-(((2R,7aS)-2-fluorotetrahydro-1H-pyrrolizin-7a(5H)-yl)methoxy)quinazolin-7-yl)-5-ethyl-6-fluoronaphthalen-2-ol] | 0.005 | 0.004 | 0.008 | 0.044 |
| Oc1cc(-c2ccc3c(N4C[C@@H]5CC[C@H]4CN5)nc(OC[C@@]45CCCN4C[C@H](F)C5)nc3c2F)c2c(F)c(F)ccc2c1 [Example 140, 4-(4-((1S,4S)-2,5-diazabicyclo[2.2.2]octan-2-yl)-8-fluoro-2-(((2R,7aS)-2-fluorotetrahydro-1H-pyrrolizin-7a(5H)-yl)methoxy)quinazolin-7-yl)-5,6-difluoronaphthalen-2-ol] | 0.002 | 0.001 | 0.011 | 0.07 |
